Data reported in ChEMBL document CHEMBL5055616, “Discovery of Acyl-sulfonamide Nav1.7 Inhibitors GDC-0276 and GDC-0310” (J Med Chem, 2021).
pEC50, pIC50: −log10 of the molar value. ≈ marks a conversion by molar mass, not a printed value. One block for each compound: values may come before it.

Legend:
[1] = target: Sodium channel protein type 5 subunit alpha (Homo sapiens, UniProt Q14524); assay: Inhibition of human Nav1.5 expressed in HEK293 cells incubated for 1 hr in presence of veratridine and anthropleurin-C by sodium influx assay; format: cell-based
Sequence of Sodium channel protein type 5 subunit alpha (Q14524 whole entry): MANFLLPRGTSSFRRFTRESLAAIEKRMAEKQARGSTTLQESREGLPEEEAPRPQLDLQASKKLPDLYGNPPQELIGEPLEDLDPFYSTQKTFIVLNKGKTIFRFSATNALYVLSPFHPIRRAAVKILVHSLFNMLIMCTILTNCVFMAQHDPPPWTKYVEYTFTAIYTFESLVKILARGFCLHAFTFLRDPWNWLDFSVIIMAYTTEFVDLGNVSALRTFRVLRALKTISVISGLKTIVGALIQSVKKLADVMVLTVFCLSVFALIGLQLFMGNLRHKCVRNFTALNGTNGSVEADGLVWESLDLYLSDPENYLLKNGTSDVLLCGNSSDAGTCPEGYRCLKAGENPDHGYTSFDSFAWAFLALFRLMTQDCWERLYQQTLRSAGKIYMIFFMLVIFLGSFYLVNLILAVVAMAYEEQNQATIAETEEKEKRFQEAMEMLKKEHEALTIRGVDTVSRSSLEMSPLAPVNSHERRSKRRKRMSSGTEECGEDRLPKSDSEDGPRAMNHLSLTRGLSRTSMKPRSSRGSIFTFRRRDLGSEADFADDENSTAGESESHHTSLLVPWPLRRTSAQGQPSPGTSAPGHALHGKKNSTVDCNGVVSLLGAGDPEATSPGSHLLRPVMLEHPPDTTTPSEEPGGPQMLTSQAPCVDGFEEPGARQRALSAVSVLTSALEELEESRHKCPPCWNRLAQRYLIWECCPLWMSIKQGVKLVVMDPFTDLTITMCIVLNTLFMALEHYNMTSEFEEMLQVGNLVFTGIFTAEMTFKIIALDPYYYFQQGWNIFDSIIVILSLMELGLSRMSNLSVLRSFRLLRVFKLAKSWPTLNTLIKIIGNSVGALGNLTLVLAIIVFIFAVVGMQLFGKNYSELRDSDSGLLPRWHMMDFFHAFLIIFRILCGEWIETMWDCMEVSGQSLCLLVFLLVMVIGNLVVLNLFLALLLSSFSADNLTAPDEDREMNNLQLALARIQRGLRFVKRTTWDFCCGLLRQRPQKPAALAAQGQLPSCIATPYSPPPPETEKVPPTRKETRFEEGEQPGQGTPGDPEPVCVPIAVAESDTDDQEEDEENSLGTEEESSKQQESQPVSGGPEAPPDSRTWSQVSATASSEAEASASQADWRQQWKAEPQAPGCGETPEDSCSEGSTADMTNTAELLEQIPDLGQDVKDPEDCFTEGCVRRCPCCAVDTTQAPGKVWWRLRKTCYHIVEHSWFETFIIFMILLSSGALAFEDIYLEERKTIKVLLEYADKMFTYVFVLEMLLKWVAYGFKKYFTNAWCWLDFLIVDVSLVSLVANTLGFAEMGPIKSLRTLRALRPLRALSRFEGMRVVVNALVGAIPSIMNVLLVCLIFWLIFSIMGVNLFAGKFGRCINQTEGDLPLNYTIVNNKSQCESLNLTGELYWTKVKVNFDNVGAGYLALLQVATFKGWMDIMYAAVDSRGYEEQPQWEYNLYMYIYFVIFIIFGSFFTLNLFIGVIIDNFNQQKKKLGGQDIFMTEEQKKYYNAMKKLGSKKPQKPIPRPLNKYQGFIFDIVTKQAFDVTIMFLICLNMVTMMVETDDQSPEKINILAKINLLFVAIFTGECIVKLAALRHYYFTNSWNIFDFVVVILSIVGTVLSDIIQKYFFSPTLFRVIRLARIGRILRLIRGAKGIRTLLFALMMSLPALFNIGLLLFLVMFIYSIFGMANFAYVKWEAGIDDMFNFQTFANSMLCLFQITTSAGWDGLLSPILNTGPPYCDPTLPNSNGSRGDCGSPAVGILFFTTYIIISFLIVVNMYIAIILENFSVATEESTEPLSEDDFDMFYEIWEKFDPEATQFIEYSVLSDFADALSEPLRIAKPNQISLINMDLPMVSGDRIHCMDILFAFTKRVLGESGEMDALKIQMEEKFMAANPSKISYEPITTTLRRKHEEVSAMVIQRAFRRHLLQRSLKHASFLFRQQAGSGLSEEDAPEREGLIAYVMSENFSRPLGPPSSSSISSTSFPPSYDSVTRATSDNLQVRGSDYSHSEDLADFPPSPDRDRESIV

[2] = Metabolic stability in human liver microsomes assessed as intrinsic clearance at 1 uM measured upto 60 mins in presence of NADPH by LC-MS/MS analysis; format: ADME, Microsome; conditions: read-out: CLH
[3] = Metabolic stability in human hepatocytes assessed as intrinsic clearance at 1 uM measured upto 3 hrs by LC-MS/MS analysis; format: ADME, cell-based, Hepatocyte; conditions: read-out: CLH
[4] = Lipophilicity, logD of the compound at pH 7.4 by shake flask assay based LC-MS/MS analysis; format: physicochemical; conditions: buffer
Homo sapiens = organism: Homo sapiens; assay: Selectivity index, ratio of IC50 for human Nav1.5 expressed in HEK293 cells to IC50 for human Nav1.7 expressed in HEK293 cells; format: cell-based
[5] = target: Sodium channel protein type 2 subunit alpha (Homo sapiens, UniProt Q99250); assay: Inhibition of full length human Nav1.2 expressed in HEK cells by whole cell voltage clamp analysis; format: cell-based
Sequence of Sodium channel protein type 2 subunit alpha (Q99250 whole entry): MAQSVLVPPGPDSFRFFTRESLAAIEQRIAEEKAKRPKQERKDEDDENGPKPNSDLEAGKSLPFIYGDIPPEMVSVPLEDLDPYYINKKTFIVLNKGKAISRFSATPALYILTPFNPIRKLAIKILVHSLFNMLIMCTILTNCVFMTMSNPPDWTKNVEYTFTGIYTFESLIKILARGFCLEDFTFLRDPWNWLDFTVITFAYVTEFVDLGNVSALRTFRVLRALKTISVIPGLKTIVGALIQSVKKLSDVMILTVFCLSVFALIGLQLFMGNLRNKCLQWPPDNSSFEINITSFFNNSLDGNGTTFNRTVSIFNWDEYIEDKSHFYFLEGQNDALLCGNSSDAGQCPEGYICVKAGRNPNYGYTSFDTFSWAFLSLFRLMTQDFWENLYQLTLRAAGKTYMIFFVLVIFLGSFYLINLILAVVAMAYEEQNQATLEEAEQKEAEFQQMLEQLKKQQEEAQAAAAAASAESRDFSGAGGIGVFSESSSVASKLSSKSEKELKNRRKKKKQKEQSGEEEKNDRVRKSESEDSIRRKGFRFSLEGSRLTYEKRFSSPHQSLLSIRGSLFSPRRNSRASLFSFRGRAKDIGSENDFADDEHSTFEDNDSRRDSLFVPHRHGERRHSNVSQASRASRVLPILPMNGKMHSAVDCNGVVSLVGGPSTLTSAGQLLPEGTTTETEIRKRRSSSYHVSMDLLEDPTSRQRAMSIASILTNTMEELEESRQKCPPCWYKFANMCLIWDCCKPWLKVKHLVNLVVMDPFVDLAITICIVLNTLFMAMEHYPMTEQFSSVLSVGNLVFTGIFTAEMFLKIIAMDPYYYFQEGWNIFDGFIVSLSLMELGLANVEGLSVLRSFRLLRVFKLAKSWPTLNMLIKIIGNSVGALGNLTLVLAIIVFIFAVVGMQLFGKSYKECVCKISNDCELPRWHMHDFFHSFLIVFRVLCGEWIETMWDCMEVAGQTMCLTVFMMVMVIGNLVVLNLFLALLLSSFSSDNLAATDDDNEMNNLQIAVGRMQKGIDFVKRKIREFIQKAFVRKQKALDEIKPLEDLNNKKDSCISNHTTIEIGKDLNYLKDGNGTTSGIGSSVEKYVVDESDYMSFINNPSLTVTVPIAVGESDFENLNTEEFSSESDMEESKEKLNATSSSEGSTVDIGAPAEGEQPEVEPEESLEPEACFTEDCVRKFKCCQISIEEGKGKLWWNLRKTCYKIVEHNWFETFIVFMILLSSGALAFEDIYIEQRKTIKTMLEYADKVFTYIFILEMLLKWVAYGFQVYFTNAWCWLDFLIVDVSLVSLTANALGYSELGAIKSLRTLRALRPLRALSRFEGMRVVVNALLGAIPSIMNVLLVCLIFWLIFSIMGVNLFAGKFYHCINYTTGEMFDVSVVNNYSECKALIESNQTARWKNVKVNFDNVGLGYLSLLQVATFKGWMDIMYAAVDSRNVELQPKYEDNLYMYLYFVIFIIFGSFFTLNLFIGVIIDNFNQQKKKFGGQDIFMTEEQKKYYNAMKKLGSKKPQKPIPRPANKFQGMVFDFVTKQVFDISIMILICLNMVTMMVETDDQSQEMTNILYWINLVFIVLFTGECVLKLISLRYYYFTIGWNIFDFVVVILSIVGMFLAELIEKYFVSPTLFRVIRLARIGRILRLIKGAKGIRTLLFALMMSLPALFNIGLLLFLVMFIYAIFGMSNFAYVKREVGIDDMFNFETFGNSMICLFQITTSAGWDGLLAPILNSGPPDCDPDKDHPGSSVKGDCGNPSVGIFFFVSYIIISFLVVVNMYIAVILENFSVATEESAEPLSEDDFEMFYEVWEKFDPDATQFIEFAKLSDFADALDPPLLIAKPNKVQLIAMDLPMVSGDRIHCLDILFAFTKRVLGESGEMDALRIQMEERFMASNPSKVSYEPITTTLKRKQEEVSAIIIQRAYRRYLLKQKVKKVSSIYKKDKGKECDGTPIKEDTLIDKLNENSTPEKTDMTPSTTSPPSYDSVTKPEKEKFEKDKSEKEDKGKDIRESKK

[6] = target: Sodium channel protein type 4 subunit alpha (Homo sapiens, UniProt P35499); assay: Inhibition of full length human Nav1.4 expressed in HEK cells by whole cell voltage clamp analysis; format: cell-based
Cytochrome P450 3A4 = Cytochrome P450 3A4 (Homo sapiens, UniProt P08684); assay: Inhibition of CYP3A4 (unknown origin); format: ADME
Sequence of Cytochrome P450 3A4 (P08684 whole entry): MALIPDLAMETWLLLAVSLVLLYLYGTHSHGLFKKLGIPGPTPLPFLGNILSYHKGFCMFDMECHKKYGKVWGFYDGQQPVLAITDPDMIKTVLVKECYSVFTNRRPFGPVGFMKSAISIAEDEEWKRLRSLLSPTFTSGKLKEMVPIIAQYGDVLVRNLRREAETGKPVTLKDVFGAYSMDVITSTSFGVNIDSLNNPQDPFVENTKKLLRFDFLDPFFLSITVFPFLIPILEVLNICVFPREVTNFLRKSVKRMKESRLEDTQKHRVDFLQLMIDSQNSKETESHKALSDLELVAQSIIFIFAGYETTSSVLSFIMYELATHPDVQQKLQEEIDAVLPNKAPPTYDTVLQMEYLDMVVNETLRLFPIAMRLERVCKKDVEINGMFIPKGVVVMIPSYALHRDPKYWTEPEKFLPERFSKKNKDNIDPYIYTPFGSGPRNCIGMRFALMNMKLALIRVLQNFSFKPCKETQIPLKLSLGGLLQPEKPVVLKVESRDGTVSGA

[7] = Kinetic solubility of compound in PBS at pH 7.4; format: physicochemical; conditions: read-out: Kinetic_solubility
[8] = Plasma protein binding in human assessed as unbound fraction at 5 uM after 6 hrs by LC-MS/MS analysis based equilibrium dialysis method; format: ADME, cell-free
[9] = Apparent permeability across apical to basolateral side in MDCK cells by transwell assay; format: ADME, cell-based, Canis lupus familiaris; conditions: dog
[10] = Plasma protein binding in Sprague-Dawley rat assessed as unbound fraction at 5 uM after 6 hrs by LC-MS/MS analysis based equilibrium dialysis method; format: ADME, cell-free
[11] = Plasma protein binding in Beagle dog assessed as unbound fraction at 5 uM after 6 hrs by LC-MS/MS analysis based equilibrium dialysis method; format: ADME, cell-free, Canis lupus familiaris
[12] = Plasma protein binding in cynomolgus monkey assessed as unbound fraction at 5 uM after 6 hrs by LC-MS/MS analysis based equilibrium dialysis method; format: ADME, cell-free, Macaca fascicularis
[13] = Volume of distribution at steady state in Sprague-Dawley rat at 5 mg/kg, po or 1 mg/kg, iv measured upto 8 hrs by LC-MS/MS analysis; format: ADME, organism-based; conditions: in vivo
[14] = Volume of distribution at steady state in Beagle dog at 1 mg/kg, po or 0.5 mg/kg, iv measured upto 24 hrs by LC-MS/MS analysis; format: ADME, organism-based, Canis lupus familiaris; conditions: in vivo
[15] = Volume of distribution at steady state in cynomolgus monkey at 2 mg/kg, po or 1 mg/kg, iv measured upto 24 hrs by LC-MS/MS analysis; format: ADME, organism-based, Macaca fascicularis; conditions: in vivo
[16] = Half life in Sprague-Dawley rat at 5 mg/kg, po or 1 mg/kg, iv measured upto 8 hrs by LC-MS/MS analysis; format: ADME, organism-based; conditions: in vivo
[17] = Half life in Beagle dog at 1 mg/kg, po or 0.5 mg/kg, iv measured upto 24 hrs by LC-MS/MS analysis; format: ADME, organism-based, Canis lupus familiaris; conditions: in vivo
[18] = Half life in cynomolgus monkey at 2 mg/kg, po or 1 mg/kg, iv measured upto 24 hrs by LC-MS/MS analysis; format: ADME, organism-based, Macaca fascicularis; conditions: in vivo
[19] = Oral bioavailability in Sprague-Dawley rat at 5 mg/kg measured upto 8 hrs by LC-MS/MS analysis; format: ADME, organism-based; conditions: in vivo
[20] = Oral bioavailability in Beagle dog at 1 mg/kg measured upto 24 hrs by LC-MS/MS analysis; format: ADME, organism-based, Canis lupus familiaris; conditions: in vivo
[21] = Oral bioavailability in cynomolgus monkey at 2 mg/kg measured upto 24 hrs by LC-MS/MS analysis; format: ADME, organism-based, Macaca fascicularis; conditions: in vivo
Mus musculus = assay: Antinociceptive activity in po dosed FVB hNav1.7 transgenic mouse model of inherited erythromelalgia harboring I848T mutation assessed as reduction in number of nociceptive aconitine injected after compound administration; format: functional, organism-based; conditions: for pEC50: Mus musculus; for fEC50: route po
[22] = target: Sodium channel protein type 1 subunit alpha (Homo sapiens, UniProt P35498); assay: Inhibition of full length human Nav1.1 expressed in HEK cells by whole cell voltage clamp analysis; format: cell-based
[23] = target: Sodium channel protein type 8 subunit alpha (Homo sapiens, UniProt Q9UQD0); assay: Inhibition of human Nav1.6 expressed in CHO cells by whole cell voltage clamp analysis; format: cell-based

CLint scaled at 1 µM [2]: 1.14 L/h/kg | CLint scaled at 1 µM [3]: 1.02 L/h/kg | logD [4]: 3.3
SMILES: CS(=O)(=O)NC(=O)c1cc(C2CC2)c(OCC23CC4CC(CC(C4)C2)C3)cc1F
pIC50 [1]: 5.96

CLint scaled at 1 µM [2]: 0.66 L/h/kg | CLint scaled at 1 µM [3]: 0.72 L/h/kg | logD [4]: 3.8
SMILES: O=C(NS(=O)(=O)N1CCOCC1)c1cc(C2CC2)c(OCC23CC4CC(CC(C4)C2)C3)cc1F
pIC50 [1]: 6.96 | Ratio IC50 (Homo sapiens): 1

CLint scaled at 1 µM [2]: 0.51 L/h/kg | CLint scaled at 1 µM [3]: < 0.372 L/h/kg | logD [4]: 4.4
SMILES: O=C(NS(=O)(=O)N1CCCC1)c1cc(C2CC2)c(OCC23CC4CC(CC(C4)C2)C3)cc1F
pIC50 [1]: 5.82 | Ratio IC50 (Homo sapiens): 9

CLint scaled at 1 µM [2]: 0.288 L/h/kg | CLint scaled at 1 µM [3]: 0.9 L/h/kg | logD [4]: 0.3
SMILES: CS(=O)(=O)NC(=O)c1cc(C2CC2)c(OCC2CCN(Cc3ccccc3)CC2)cc1F
pIC50 [1]: < 4.52 | Ratio IC50 (Homo sapiens): > 9.1

CLint scaled at 1 µM [2]: 0.96 L/h/kg | CLint scaled at 1 µM [3]: 0.402 L/h/kg | logD [4]: 3.4
SMILES: O=C(NS(=O)(=O)C1COC1)c1cc(C2CC2)c(OCC23CC4CC(CC(C4)C2)C3)cc1F
pIC50 [1]: 6.12 | Ratio IC50 (Homo sapiens): 20

CLint scaled at 1 µM [2]: 1.08 L/h/kg | CLint scaled at 1 µM [3]: 0.96 L/h/kg | logD [4]: 3.2
SMILES: O=C(NS(=O)(=O)C1CC1)c1cc(C2CC2)c(OCC23CC4CC(CC(C4)C2)C3)cc1F
pIC50 [1]: 6.59 | Ratio IC50 (Homo sapiens): 19

More lines, now with the values behind:

SMILES: CC(C)(c1cc(Cl)cc(Cl)c1)N1CCC(COc2cc(F)c(C(=O)NS(C)(=O)=O)cc2C2CC2)CC1
pIC50 [1]: 5.41 | CLint scaled at 1 µM [2]: 0.468 L/h/kg | CLint scaled at 1 µM [3]: < 0.372 L/h/kg | logD [4]: 3.9 | Ratio IC50 (Homo sapiens): 144

SMILES: O=C(NS(=O)(=O)N1CCC1)c1cc(C2CC2)c(OCC23CC4CC(CC(C4)C2)C3)cc1F
pIC50 [1]: 6.06 | CLint scaled at 1 µM [2]: 0.6 L/h/kg | CLint scaled at 1 µM [3]: 0.66 L/h/kg | logD [4]: 3.1 | pIC50 [5]: 7.72 | pIC50 [6]: 8.07 | pIC50 (Cytochrome P450 3A4): < 5.00 | solubility kinetic [7]: 5.3 µM (≈ 2.45 µg/mL) | Fu [8]: 0.025% | Papp A→B [9]: 47 nm/s | Fu [10]: 0.013% | Fu [11]: 0.005% | Fu [12]: 0.025% | Vdss [13]: 0.38 L/kg | Vdss [14]: 0.17 L/kg | Vdss [15]: 0.3 L/kg | half-life [16]: 0.95 h | half-life [17]: 5.5 h | half-life [18]: 1.6 h | bioavailability [19]: 34% | bioavailability [20]: 50% | bioavailability [21]: 30% | pEC50 (Mus musculus): 5.77 | fEC50 (Mus musculus): 0.42 nM

SMILES: CS(=O)(=O)NC(=O)c1cc(C2CC2)c(OCC2CCN(C(=O)c3cc(Cl)cc(Cl)c3)CC2)cc1F
pIC50 [1]: 5.19 | CLint scaled at 1 µM [2]: 0.516 L/h/kg | CLint scaled at 1 µM [3]: 0.45 L/h/kg | logD [4]: 0.9 | Ratio IC50 (Homo sapiens): 183

SMILES: CS(=O)(=O)NC(=O)c1cc(C2CC2)c(OCC2CCN(Cc3ccc(Cl)cc3)CC2)cc1F
pIC50 [1]: 4.57 | CLint scaled at 1 µM [2]: 0.594 L/h/kg | CLint scaled at 1 µM [3]: 0.9 L/h/kg | Ratio IC50 (Homo sapiens): 667

SMILES: C[C@@H](c1cc(Cl)cc(Cl)c1)N1CCC(COc2cc(F)c(C(=O)NS(C)(=O)=O)cc2C2CC2)CC1
pIC50 [1]: 5.82 | CLint scaled at 1 µM [2]: 0.576 L/h/kg | CLint scaled at 1 µM [3]: < 0.372 L/h/kg | logD [4]: 2.3 | pIC50 [22]: 6.69 | pIC50 [5]: 7.42 | pIC50 [23]: 6.70 | pIC50 (Cytochrome P450 3A4): < 5.00 | solubility kinetic [7]: 52 µM (≈ 28.3 µg/mL) | Fu [8]: 0.196% | Papp A→B [9]: 110 nm/s | Fu [10]: 0.278% | Fu [11]: 0.157% | Fu [12]: 0.129% | Vdss [13]: 0.6 L/kg | Vdss [14]: 0.33 L/kg | Vdss [15]: 0.29 L/kg | half-life [16]: 5 h | half-life [17]: 46 h | half-life [18]: 4.4 h | bioavailability [19]: 68% | bioavailability [20]: 100% | bioavailability [21]: 82% | pEC50 (Mus musculus): 5.96 | fEC50 (Mus musculus): 3.5 nM

SMILES: CS(=O)(=O)NC(=O)c1cc(C2CC2)c(OCC2CCN(Cc3ccc(OC(F)(F)F)cc3)CC2)cc1F
pIC50 [1]: 4.77 | CLint scaled at 1 µM [2]: 0.594 L/h/kg | logD [4]: 1.2 | Ratio IC50 (Homo sapiens): 531

SMILES: CS(=O)(=O)NC(=O)c1cc(C2CC2)c(OCC2CCN(Cc3cc(Cl)cc(Cl)c3)CC2)cc1F
pIC50 [1]: 5.15 | CLint scaled at 1 µM [2]: 0.582 L/h/kg | CLint scaled at 1 µM [3]: 0.9 L/h/kg | logD [4]: 2 | Ratio IC50 (Homo sapiens): 58

SMILES: CS(=O)(=O)NC(=O)c1cc(C2CC2)c(OCC2CN(Cc3ccccc3)C2)cc1F
pIC50 [1]: < 4.52 | logD [4]: 0.1

SMILES: CS(=O)(=O)NC(=O)c1cc(C2CC2)c(OCC2CCN(C(c3ccccc3)c3ccccc3)CC2)cc1F
pIC50 [1]: 6.23 | CLint scaled at 1 µM [2]: 0.33 L/h/kg | CLint scaled at 1 µM [3]: < 0.372 L/h/kg | logD [4]: 2.7 | Ratio IC50 (Homo sapiens): 8.9

SMILES: C[C@H](c1cc(Cl)cc(Cl)c1)N1CCC(COc2cc(F)c(C(=O)NS(C)(=O)=O)cc2C2CC2)CC1
CLint scaled at 1 µM [2]: 1.02 L/h/kg | CLint scaled at 1 µM [3]: 0.96 L/h/kg | logD [4]: 2.2

SMILES: CS(=O)(=O)NC(=O)c1cc(C2CC2)c(OCC2CN(C(c3ccccc3)c3ccccc3)C2)cc1F
pIC50 [1]: 5.96 | CLint scaled at 1 µM [2]: 0.402 L/h/kg | CLint scaled at 1 µM [3]: 0.9 L/h/kg | logD [4]: 1.8 | Ratio IC50 (Homo sapiens): 48
